ChEMBL document CHEMBL1697781, “Assessment of the health effects of chemicals in humans: II. Construction of an adverse effects database for QSAR modeling” (Curr Drug Discov Technol, 2004)

How the values were obtained:
Conditions in all cases: human; call rule not given here
Hepatotoxicity [1] = assay: FDA HLAED, serum glutamic pyruvic transaminase (SGPT) increase
Hepatotoxicity [2] = assay: FDA HLAED, alkaline phosphatase increase
Hepatotoxicity [3] = assay: FDA HLAED, gamma-glutamyl transferase (GGT) increase
Hepatotoxicity [4] = assay: FDA HLAED, lactate dehydrogenase (LDH) increase
Hepatotoxicity [5] = assay: FDA HLAED, serum glutamic oxaloacetic transaminase (SGOT) increase
Hepatotoxicity [6] = assay: FDA HLAED, liver enzyme composite activity
For GGT Increase - Index Value in this document: reference of the scale not given here.
For LDH Increase - Index Value in this document: reference of the scale not given here.

| Structure (SMILES) | SGPT Increase - Activity Score (Hepatotoxicity [1]) | SGPT Increase - Index Value (Hepatotoxicity [1]) | SGPT Increase - Number of Reports (Hepatotoxicity [1]) | Alkaline Phosphatase Increase - Activity Score (Hepatotoxicity [2]) | Alkaline Phosphatase Increase - Index Value (Hepatotoxicity [2]) | Alkaline Phosphatase Increase - Number of Reports (Hepatotoxicity [2]) | GGT Increase - Activity Score (Hepatotoxicity [3]) | GGT Increase - Index Value (Hepatotoxicity [3]) | GGT Increase - Number of Reports (Hepatotoxicity [3]) | LDH Increase - Activity Score (Hepatotoxicity [4]) | LDH Increase - Index Value (Hepatotoxicity [4]) | LDH Increase - Number of Reports (Hepatotoxicity [4]) | SGOT Increase - Activity Score (Hepatotoxicity [5]) | SGOT Increase - Index Value (Hepatotoxicity [5]) | SGOT Increase - Number of Reports (Hepatotoxicity [5]) | Composite Activity - Active (Hepatotoxicity [6]) | Composite Activity - Marginal (Hepatotoxicity [6]) | Composite Activity - Score (Hepatotoxicity [6]) |
| --- | --- | --- | --- | --- | --- | --- | --- | --- | --- | --- | --- | --- | --- | --- | --- | --- | --- | --- |
| CNC(=C[N+](=O)[O-])NCCSCc1csc(CN(C)C)n1 [NIZATIDINE] | Inactive | 2.4 | >= 4 | Inactive | 1.4 | >= 4 | Inactive | 0.8 | >= 4 | Inactive | 0.5 | >= 4 | Marginally Active | 3 | >= 4 | 0 | 1 | Inactive |
| COc1cccc2c1C(=O)c1c(O)c3c(c(O)c1C2=O)C[C@@](O)(C(C)=O)C[C@@H]3O[C@H]1C[C@H](N)[C@H](O)[C@H](C)O1 [DAUNORUBICIN] | Inactive | 0 | < 4 | Inactive | 0 | < 4 | Inactive | 0 | < 4 | Inactive | 0 | < 4 | Inactive | 0 | < 4 | 0 | 0 | Inactive |
| C[C@@H]1C[C@H]2[C@H]3[C@H]([C@@H](O)C[C@]2(C)[C@@]1(O)C(=O)CO)[C@@]1(C)C=CC(=O)C=C1C[C@H]3Cl [ALCLOMETASONE] | Inactive | 0 | < 4 | Inactive | 0 | < 4 | Inactive | 0 | < 4 | Inactive | 0 | < 4 | Inactive | 0 | < 4 | 0 | 0 | Inactive |
| CNC(=C[N+](=O)[O-])NCCSCc1ccc(CN(C)C)o1 [RANITIDINE] | Inactive | 1 | >= 4 | Inactive | 1.1 | >= 4 | Inactive | 0 | < 4 | Inactive | 0.3 | >= 4 | Inactive | 1.2 | >= 4 | 0 | 0 | Inactive |
| O=c1[nH]c2ccccc2n1C1CCN(CCCC(c2ccc(F)cc2)c2ccc(F)cc2)CC1 [PIMOZIDE] | Inactive | 17.6 | < 4 | Inactive | 17.6 | < 4 | Inactive | 17.6 | < 4 | Inactive | 0 | < 4 | Inactive | 0 | < 4 | 0 | 0 | Inactive |
| CC[C@H]1OC(=O)[C@H](C)[C@@H](O[C@H]2C[C@@](C)(OC)[C@@H](O)[C@H](C)O2)[C@H](C)[C@@H](O[C@@H]2O[C@H](C)C[C@H](N(C)C)[C@H]2O)[C@](C)(OC)C[C@@H](C)C(=O)[C@H](C)[C@@H](O)[C@]1(C)O [CLARITHROMYCIN] | Marginally Active | 3.3 | >= 4 | Marginally Active | 3.1 | >= 4 | Inactive | 1.5 | >= 4 | Inactive | 1.4 | >= 4 | Marginally Active | 3.8 | >= 4 | 0 | 3 | Inactive |
